Laboratory results from PubChem BioAssay (NCI).
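1) Cells in 96-well plates. 2) Compound, 48 h, 5 concentrations. 3) Linear interpolation between surrounding doses. 4) Unreached endpoint = highest concentration. At the TGI there is no net growth.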

Assays:
Assay in all cases: inhibition of tumour cell growth, NCI panel, 48 h
786-0 renal = system: 786-0 renal
A549 NSCLC = system: A549 NSCLC
CAKI-1 renal = system: CAKI-1 renal
CCRF-CEM leukemia = system: CCRF-CEM leukemia
COLO 205 colon = system: COLO 205 colon
DU-145 prostate = system: DU-145 prostate
EKVX NSCLC = system: EKVX NSCLC
HCC-2998 colon = system: HCC-2998 colon
HCT-15 colon = system: HCT-15 colon
HL-60(TB) leukemia = system: HL-60(TB) leukemia
HOP-62 NSCLC = system: HOP-62 NSCLC
HT29 colon = system: HT29 colon
IGROV1 ovarian = system: IGROV1 ovarian
K-562 leukemia = system: K-562 leukemia
KM12 colon = system: KM12 colon
LOX IMVI melanoma = system: LOX IMVI melanoma
M14 melanoma = system: M14 melanoma
MALME-3M melanoma = system: MALME-3M melanoma
MCF7 breast = system: MCF7 breast
MDA-MB-231 breast = system: MDA-MB-231 breast
MDA-N = system: MDA-N
NCI-H23 lung = system: NCI-H23 lung
OVCAR-8 ovarian = system: OVCAR-8 ovarian
PC-3 prostate = system: PC-3 prostate
RPMI-8226 leukemia = system: RPMI-8226 leukemia
RXF 393 renal = system: RXF 393 renal
SF-268 CNS = system: SF-268 CNS
SK-MEL-28 melanoma = system: SK-MEL-28 melanoma
SK-MEL-5 melanoma = system: SK-MEL-5 melanoma
SK-OV-3 ovarian = system: SK-OV-3 ovarian
SN12C renal = system: SN12C renal
SNB-75 CNS = system: SNB-75 CNS
SW-620 colon = system: SW-620 colon
T-47D breast = system: T-47D breast
TK-10 renal = system: TK-10 renal
UACC-257 melanoma = system: UACC-257 melanoma
UACC-62 melanoma = system: UACC-62 melanoma
ACHN renal = system: ACHN renal
HCT-116 colon = system: HCT-116 colon
MDA-MB-435 = system: MDA-MB-435
NCI-H226 lung = system: NCI-H226 lung
NCI-H460 lung = system: NCI-H460 lung
OVCAR-3 ovarian = system: OVCAR-3 ovarian
OVCAR-4 ovarian = system: OVCAR-4 ovarian
OVCAR-5 ovarian = system: OVCAR-5 ovarian
SF-295 CNS = system: SF-295 CNS
SK-MEL-2 melanoma = system: SK-MEL-2 melanoma
SNB-19 CNS = system: SNB-19 CNS
U251 CNS = system: U251 CNS
UO-31 renal = system: UO-31 renal
A498 renal = system: A498 renal
HOP-92 NSCLC = system: HOP-92 NSCLC
HS 578T breast = system: HS 578T breast
MOLT-4 leukemia = system: MOLT-4 leukemia
NCI-H522 lung = system: NCI-H522 lung
NCI/ADR-RES ovarian = system: NCI/ADR-RES ovarian
SF-539 CNS = system: SF-539 CNS

## CCN(CC)CCCNc1ccc([N+](=O)[O-])c2nc3ccc(OC)cc3c(NCCCN(CC)CC)c12
786-0 renal
  TGI: 2.76 µM
A549 NSCLC
  TGI: 3.73 µM
CAKI-1 renal
  TGI: > 10 µM
CCRF-CEM leukemia
  TGI: 7.37 µM
COLO 205 colon
  TGI: > 10 µM
DU-145 prostate
  TGI: > 10 µM
EKVX NSCLC
  TGI: > 10 µM
HCC-2998 colon
  TGI: 3.03 µM
HCT-15 colon
  TGI: 2.79 µM
HL-60(TB) leukemia
  TGI: 1.04 µM
HOP-62 NSCLC
  TGI: > 10 µM
HT29 colon
  TGI: 3.42 µM
IGROV1 ovarian
  TGI: > 10 µM
K-562 leukemia
  TGI: 3.75 µM
KM12 colon
  TGI: 3.05 µM
LOX IMVI melanoma
  TGI: 2.69 µM
M14 melanoma
  TGI: > 10 µM
MALME-3M melanoma
  TGI: > 10 µM
MCF7 breast
  TGI: 3.56 µM
MDA-MB-231 breast
  TGI: 2.84 µM
MDA-N
  TGI: > 10 µM
NCI-H23 lung
  TGI: 4.76 µM
OVCAR-8 ovarian
  TGI: 2.7 µM
PC-3 prostate
  TGI: 2.9 µM
RPMI-8226 leukemia
  TGI: 5.81 µM
RXF 393 renal
  TGI: 4.05 µM
SF-268 CNS
  TGI: > 10 µM
SK-MEL-28 melanoma
  TGI: > 10 µM
SK-MEL-5 melanoma
  TGI: > 10 µM
SK-OV-3 ovarian
  TGI: > 10 µM
SN12C renal
  TGI: 5.89 µM
SNB-75 CNS
  TGI: > 10 µM
SW-620 colon
  TGI: 3.98 µM
T-47D breast
  TGI: > 10 µM
TK-10 renal
  TGI: > 10 µM
UACC-257 melanoma
  TGI: > 10 µM
UACC-62 melanoma
  TGI: > 10 µM

## COC(=O)c1cc2c3c(cc(NCCN)c2[nH]1)N(C(=O)c1cc2cc(OC)c(OC)c(OC)c2[nH]1)CC3CCl (stereo unspecified)
786-0 renal
  TGI: 0.283 µM
A549 NSCLC
  TGI: 0.481 µM
ACHN renal
  TGI: 0.251 µM
COLO 205 colon
  TGI: 0.146 µM
DU-145 prostate
  TGI: 0.0516 µM
EKVX NSCLC
  TGI: 0.827 µM
HCC-2998 colon
  TGI: 0.182 µM
HCT-116 colon
  TGI: 0.0256 µM
HCT-15 colon
  TGI: 1.42 µM
HOP-62 NSCLC
  TGI: 0.48 µM
HT29 colon
  TGI: 0.213 µM
K-562 leukemia
  TGI: > 100 µM
M14 melanoma
  TGI: 0.253 µM
MALME-3M melanoma
  TGI: 0.123 µM
MDA-MB-231 breast
  TGI: 0.467 µM
MDA-MB-435
  TGI: 0.293 µM
MDA-N
  TGI: 0.207 µM
NCI-H226 lung
  TGI: 0.178 µM
NCI-H460 lung
  TGI: 0.536 µM
OVCAR-3 ovarian
  TGI: 0.569 µM
OVCAR-4 ovarian
  TGI: 0.31 µM
OVCAR-5 ovarian
  TGI: 0.42 µM
PC-3 prostate
  TGI: 1.01 µM
SF-295 CNS
  TGI: 0.858 µM
SK-MEL-2 melanoma
  TGI: 0.164 µM
SK-MEL-28 melanoma
  TGI: 0.48 µM
SK-MEL-5 melanoma
  TGI: 0.165 µM
SK-OV-3 ovarian
  TGI: 5.12 µM
SNB-19 CNS
  TGI: 0.0517 µM
TK-10 renal
  TGI: 2.95 µM
U251 CNS
  TGI: 0.0366 µM
UACC-62 melanoma
  TGI: 0.176 µM
UO-31 renal
  TGI: 0.65 µM

## Clc1cccc(C2ON=C(c3ccccc3)N2C23CC4CC(CC(C4)C2)C3)c1Cl (stereo unspecified)
786-0 renal
  TGI: > 10 µM
A498 renal
  TGI: > 10 µM
A549 NSCLC
  TGI: > 10 µM
ACHN renal
  TGI: > 10 µM
CAKI-1 renal
  TGI: > 10 µM
CCRF-CEM leukemia
  TGI: > 10 µM
COLO 205 colon
  TGI: > 10 µM
DU-145 prostate
  TGI: > 10 µM
EKVX NSCLC
  TGI: > 10 µM
HCC-2998 colon
  TGI: > 10 µM
HCT-116 colon
  TGI: > 10 µM
HCT-15 colon
  TGI: > 10 µM
HOP-62 NSCLC
  TGI: > 10 µM
HOP-92 NSCLC
  TGI: > 10 µM
HS 578T breast
  TGI: > 10 µM
HT29 colon
  TGI: > 10 µM
IGROV1 ovarian
  TGI: > 10 µM
K-562 leukemia
  TGI: > 10 µM
KM12 colon
  TGI: > 10 µM
LOX IMVI melanoma
  TGI: > 10 µM
M14 melanoma
  TGI: > 10 µM
MALME-3M melanoma
  TGI: > 10 µM
MCF7 breast
  TGI: > 10 µM
MDA-MB-231 breast
  TGI: > 10 µM
MDA-MB-435
  TGI: > 10 µM
MDA-N
  TGI: > 10 µM
MOLT-4 leukemia
  TGI: > 10 µM
NCI-H226 lung
  TGI: > 10 µM
NCI-H23 lung
  TGI: > 10 µM
NCI-H460 lung
  TGI: > 10 µM
NCI-H522 lung
  TGI: > 10 µM
NCI/ADR-RES ovarian
  TGI: > 10 µM
OVCAR-3 ovarian
  TGI: > 10 µM
OVCAR-4 ovarian
  TGI: > 10 µM
OVCAR-5 ovarian
  TGI: > 10 µM
OVCAR-8 ovarian
  TGI: > 10 µM
PC-3 prostate
  TGI: > 10 µM
RPMI-8226 leukemia
  TGI: > 10 µM
RXF 393 renal
  TGI: > 10 µM
SF-268 CNS
  TGI: > 10 µM
SF-295 CNS
  TGI: > 10 µM
SF-539 CNS
  TGI: > 10 µM
SK-MEL-2 melanoma
  TGI: > 10 µM
SK-MEL-28 melanoma
  TGI: > 10 µM
SK-MEL-5 melanoma
  TGI: > 10 µM
SK-OV-3 ovarian
  TGI: > 10 µM
SN12C renal
  TGI: > 10 µM
SNB-19 CNS
  TGI: > 10 µM
SNB-75 CNS
  TGI: > 10 µM
SW-620 colon
  TGI: > 10 µM
T-47D breast
  TGI: > 10 µM
TK-10 renal
  TGI: > 10 µM
U251 CNS
  TGI: > 10 µM
UACC-257 melanoma
  TGI: > 10 µM
UACC-62 melanoma
  TGI: > 10 µM
UO-31 renal
  TGI: > 10 µM
